From patent US20160287534A1, “METHODS FOR REVERSING FIBROSIS” (The University of Connecticut, priority 2015, published 2016) come the findings set out here.

Assay [1] concerns human primary HSCs. As to the kind of experiment: qRT-PCR of fibrogenic genes in human primary HSCs. Format: cell-based. Here is the method: Mouse primary HSCs were isolated from C57BL/6J, nuclear erythroid 2-related factor 2 (NRF2) knockout (Nrf2−/−), and wild-type mice using a pronase/collagenase digestion method as described herein Example 1. The cells were then cultured on untreated petri dishes (BD Falcon, Franklin Lakes, N.J.), and maintained in a low-glucose DMEM medium supplemented with 10% FBS, 4 mM L-glutamine, and P/S (100 U/100 μg per mL). Human primary HSCs (Zen-Bio, Research Triangle Park, N.C.) were maintained in a low-glucose DMEM medium containing 2% FBS, 4 mM L-glutamine, 1× nonessential amino acids, 1× vitamins, and P/S (100 U/100 μg per mL). The cells were seeded on a collagen-coated plate for experiments (Sarstedt, Newton, N.C.). LX-2 cells, kindly provided by Dr. Scott Friedman at the Icahn School of Medicine at Mount Sinai (New York, N.Y.), were maintained in a low-glucose DMEM supplemented with 2% FBS, 4 mM L-glutamine, and P/S (100 U/100 μg per mL). All cells were cultured in a 37° C. humidified cell culture chamber with 5% CO2. Cell culture supplies were purchased from HyClone unless stated otherwise (Thermo Scientific, Logan, Utah).
ASTX, provided by Fuji Chemical Industry Co., Ltd. (Toyama, Japan), was prepared in DMSO as described herein in Example 1. […]
(Real-time PCR tracks product formation cycle by cycle.)

Assay [2] has as its system aHSCs. As to the kind of experiment: Reversion of aHSCs to iHSCs: morphology, qRT-PCR, α-SMA protein. Format: cell-based, mouse. Here is the method:
ASTX, provided by Fuji Chemical Industry Co., Ltd. (Toyama, Japan), was prepared in DMSO as described herein in Example 1. After plated on an uncoated dish, mouse qHSCs were incubated with 25 μM ASTX during activation. aHSCs, which were prepared by culturing qHSCs on an uncoated dish for 6 d, were incubated with 25 μM ASTX for 2 or 4 more days. Also, cells were incubated with 3 μM tert-butyl hydrogen peroxide (tBHP, Thermo Scientific) for 12 h with or without 25 μM ASTX. Medium containing ASTX was replenished daily and DMSO vehicle control was always run in parallel. Human primary HSC were treated with 25 μM ASTX for 24 h, after which they were activated by 3 ng/mL of TGFβ1 (Peprotech, Rocky Hill, N.J.) for 24 h.
Total RNA extraction, cDNA synthesis, and qRT-PCR were conducted using a Bio-Rad CFX96 Real-Time system (Bio-Rad, Hercules, Calif.) as previously described (Id.). Primer sequences will be available upon request.
Whole cell lysates and human tissue protein extracts were prepared and Western blot analysis were performed as described (Id.) using antibodies against α-SMA (Sigma, St. Louis, Mo.), HDAC3 (Santa Cruz Biotechnology, Santa Cruz, Calif.), HDAC4 (Santa Cruz Biotechnology), HDAC9 (Abcam, Cambridge, Mass.; Novus Biologicals, Littleton, Colo.), Col1A1 (Sigma). β-tubulin (Santa Cruz) or glyceraldehyde 3-phosphate dehydrogenase (GAPDH) (Santa Cruz) was used as a loading control.

Assay [3] deals with LX-2 cells. Put plainly: qRT-PCR of TGFβ1-induced fibrogenic and TGFβ1 signaling genes in LX-2 cells. Format: cell-based. Here is the method: (§1) LX-2 cells were kindly provided by Dr. Scott Friedman at the Icahn School of Medicine at Mount Sinai (New York, N.Y.). Cells were maintained in low-glucose DMEM containing 2% FBS, 4 mM 1-glutamine, 100 U/mL penicillin and 100 μg/mL streptomycin in a 37° C. humidified cell culture chamber providing 5% CO2. LX-2 cells were incubated with varying concentrations of ASTX for 12 or 24 h, and subsequently activated by 2 ng/mL of TGFβ1 (Peprotech, Rocky Hill, N.J.) for 1 to 24 h. Primary mouse HSCs were plated on untreated petri dishes (BD Falcon, Franklin Lakes, N.J.) and maintained in low-glucose DMEM supplemented with 10% FBS, 4 mM L-glutamine, 100 U/mL penicillin and 100 μg/mL streptomycin in a 37° C. humidified cell culture chamber under 5% CO2. ASTX (25 μM) was added at day 2 or day 4 after plating until day 6 with daily media change. All cell culture supplies were purchased from HyClone (Thermo Scientific, Logan, Utah).
Total RNA extraction, cDNA synthesis, and qRT-PCR were conducted using a Bio-Rad CFX96 Real-Time system (Bio-Rad, Hercules, Calif.) as previously described (see Park et al. Nutr. Res. 2008, vol. 28, pp. 83-91; Rasmussen et al. J. Nutr. 2008, vol. 138, pp. 476-481). Gene sequences were obtained from the GenBank database and primers were designed using Beacon Designer (Premier Biosoft, Palo Alto, Calif.). Primer sequences are available (see supplemental table of Yang et al. Biochimica et Biophysica Acta 2015, vol. 1850, pp. 178-185).

The subject of assay [4] is α-SMA. Put plainly: Western blot and immunostaining of α-SMA protein in LX-2 cells. Format: cell-based. Particulars: 25 μM ASTX (FIGS. 3B, 3C). Here is the method: as §1, with “All cell culture supplies were purchased from HyClone (Thermo Scientific, Logan, Utah).” left out
Whole cell lysates were prepared to conduct Western blot as we previously described (Id.) using antibodies against α-SMA (Sigma, St. Louis, Mo.), Smad3 (Millipore, Billerica, Mass.), and phospho-Smad3 (Cell Signaling, Danvers, Mass.). β-Tubulin (Santa Cruz Biotechnology, Santa Cruz, Calif.) or β-actin (Sigma, St. Louis, Mo.) was used as a loading control. […] Blots were developed using Westpico horseradish peroxidase chemiluminescence (Pierce, Rockford, Ill.) and images were analyzed using a Chemidoc XRS+system (Bio-Rad) and Image Lab software (Bio-Rad). […]
A general note: A western blot detects proteins with antibodies after separation by electrophoresis.

For `CC1=C(/C=C/C(C)=C/C=C/C(C)=C/C=C/C=C(C)/C=C/C=C(C)/C=C/C2=C(C)C(=O)C(O)CC2(C)C)C(C)(C)CC(O)C1=O` (centres unmarked) [ASTX, astaxanthin], the “TGFβ1-mediated induction of α-SMA and Col1A1 mRNA” value in assay [1] (25 μM ASTX 24 h, then TGFβ1 3 ng/ml 24 h (FIGS. 11A, 11B)) is reported as “attenuated”. Further, in assay [1] (25 μM ASTX (FIGS. 11A, 11B)), the “basal levels of α-SMA and Col1A1 mRNA” value is listed as “attenuated”. For the same compound, the “cell morphology (lipid droplets)” value in assay [2] (aHSCs treated with ASTX for 2 or 4 d (FIG. 9A)) is given as “reappearance of cytoplasmic lipid droplets”. Moreover, the “α-SMA and Col1A1 mRNA” value in assay [2] (aHSCs treated with ASTX for 2 d (FIG. 9B)) is “significantly decreased”. In assay [2] (aHSCs, ASTX for 2 d (FIG. 9D)), the “ADRP mRNA levels, control vs ASTX-treated” value is “no significant difference”; the “LRAT mRNA” value is “markedly increased”; the “SREBP1c mRNA levels” value was “significantly decreased”. Besides, in assay [2] (aHSCs, day 8, ASTX for 2 d (FIG. 9C)), the α-SMA protein entry is reported as “significantly decreased”. Besides, the “induction of α-SMA mRNA by TGFβ1” value in assay [3] (25 μM ASTX, 3 and 12 h of TGFβ1 stimulation (FIG. 2A)) is “significantly inhibited”. Moreover, the “induction of Col1A1 mRNA by TGFβ1” value in assay [3] (25 μM ASTX, 12 h of TGFβ1 stimulation (FIG. 2A)) is given as “significantly inhibited”. Further, in assay [3] (10 and 25 μM ASTX, TGFβ1 24 h (FIG. 2B)), the “induction of the fibrogenic genes by TGFβ1” value was “significantly inhibited”. The “TGFβ-induced increases in mRNA levels of TβRI and TβRII” value in assay [3] (LX-2 cells, 25 μM ASTX (FIG. 5C)) is given as “almost completely abolished”. Also, in assay [3] (LX-2 cells, 25 μM ASTX, 2 ng/mL TGFβ1 24 h (FIG. 3A)), the “TGFβ1-induced expression of α-SMA and Col1A1 mRNA” value is reported as “significantly attenuated”. For the same compound, the “TGFβ1-induced increase in mRNA levels of Smad2, Smad3 and Smad7” value in assay [3] (LX-2 cells, 25 μM ASTX, TGFβ1 12 h (FIG. 5C)) was “abolished or significantly attenuated”. Further, the “basal expression levels of α-SMA and Col1A1 mRNA” value in assay [3] (LX-2 cells, 25 μM ASTX, no TGFβ1 (FIG. 3A)) is listed as “did not alter”. Further, in assay [3] (LX-2 cells, P=0.074), the “TGFβ1-induced NOX4 mRNA levels” value was “decreased TGFβ1-induced NOX4 mRNA levels although it did not reach statistical significance”. Moreover, in assay [4], the “protein levels of α-SMA induced by TGFβ1” value was “significantly decreased”.
